According to ChEMBL document CHEMBL1201862, “PubChem BioAssay data set” (2004):
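Five compound concentrations were applied to cells in 96-well plates for 48 hours; endpoints were derived by simple linear interpolation of the resulting dose-response curve. GI50 = concentration required for 50% inhibition of growth.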 The source made the active and inactive calls. Cut-off read from the data, not from the text of the source: active = GI50 up to about 1.1 µM and inactive = higher.

Legend:
Experiment in all cases: NCI-60 cell line screen, 48 h
SF-539 = tested on: SF-539
SW-620 = tested on: SW-620
OVCAR-8 = tested on: OVCAR-8
UO-31 = tested on: UO-31
SK-OV-3 = tested on: SK-OV-3
NCI-H23 = tested on: NCI-H23
NCI-H522 = tested on: NCI-H522
LOX IMVI = tested on: LOX IMVI
OVCAR-3 = tested on: OVCAR-3
SF-295 = tested on: SF-295
HCT-116 = tested on: HCT-116
HCC 2998 = tested on: HCC 2998
SN12C = tested on: SN12C
NCI-H460 = tested on: NCI-H460
SNB-75 = tested on: SNB-75
SK-MEL-28 = tested on: SK-MEL-28
RPMI-8226 = tested on: RPMI-8226
OVCAR-5 = tested on: OVCAR-5
UACC-257 = tested on: UACC-257
DLD-1 = tested on: DLD-1

SMILES | GI50 (SF-539) | GI50 (SW-620) | GI50 (OVCAR-8) | GI50 (UO-31) | GI50 (SK-OV-3) | GI50 (NCI-H23) | GI50 (NCI-H522) | GI50 (LOX IMVI) | GI50 (OVCAR-3) | GI50 (SF-295) | GI50 (HCT-116) | GI50 (HCC 2998) | GI50 (SN12C) | GI50 (NCI-H460) | GI50 (SNB-75) | GI50 (SK-MEL-28) | GI50 (RPMI-8226) | GI50 (OVCAR-5) | GI50 (UACC-257) | GI50 (DLD-1)
COc1cc(N/N=C/C#N)cc(OC)c1OC | > 10 µM (inactive) | 8.28 µM (inactive) | > 10 µM (inactive) | > 10 µM (inactive) | > 10 µM (inactive) | 4.34 µM (inactive) | 1.01 µM (active) | 1.54 µM (inactive) | > 10 µM (inactive) | > 10 µM (inactive) | > 10 µM (inactive) | > 10 µM (inactive) | > 10 µM (inactive) | > 10 µM (inactive) | 9.16 µM (inactive) | > 10 µM (inactive) | 2.16 µM (inactive) | > 10 µM (inactive) |  | 
COC1=CC(=O)c2ccccc2C1(C)C1=NC(C)(C)CO1 (stereo not given) | > 100 µM (inactive) | > 100 µM (inactive) | > 100 µM (inactive) | > 100 µM (inactive) | > 100 µM (inactive) | > 100 µM (inactive) | > 100 µM (inactive) |  | > 100 µM (inactive) | > 100 µM (inactive) | > 100 µM (inactive) |  | > 100 µM (inactive) | > 100 µM (inactive) | > 100 µM (inactive) | > 100 µM (inactive) | > 100 µM (inactive) |  | > 100 µM (inactive) | > 100 µM (inactive)
COc1cc(Nc2nc3ccc(C(F)(F)F)cc3nc2C(=O)O)cc(OC)c1OC | 31.4 µM (inactive) | 25.7 µM (inactive) | 27.7 µM (inactive) | 19.7 µM (inactive) | 29.2 µM (inactive) | 27.8 µM (inactive) | 21.4 µM (inactive) | 19.1 µM (inactive) | 32.1 µM (inactive) | 27.1 µM (inactive) | 18.5 µM (inactive) | 18.6 µM (inactive) | 14.4 µM (inactive) | 21.2 µM (inactive) | 46 µM (inactive) | 26.8 µM (inactive) | 21.5 µM (inactive) | 36.1 µM (inactive) | 20 µM (inactive) | 
C/C(=N\NC(=S)N1CCN(c2ccccn2)CC1)c1cccc(C)n1 | 1.27 µM (inactive) | < 0.01 µM (active) |  | 9.14 µM (inactive) | 8.65 µM (inactive) | 5.58 µM (inactive) | 0.0421 µM (active) | 2.15 µM (inactive) | < 0.01 µM (active) | 2.9 µM (inactive) | < 0.01 µM (active) | 11.9 µM (inactive) | 7.98 µM (inactive) | 1.03 µM (active) | 3.84 µM (inactive) | 7.1 µM (inactive) | < 0.01 µM (active) | 4.03 µM (inactive) |  | 
COc1ccc2c(c1)/C(=C/CCN(C)C)c1ccccc1S2 |  | > 100 µM (inactive) | > 100 µM (inactive) | 27 µM (inactive) | > 100 µM (inactive) | > 100 µM (inactive) |  | 95.5 µM (inactive) | > 100 µM (inactive) | > 100 µM (inactive) | 55.8 µM (inactive) | 44.3 µM (inactive) | > 100 µM (inactive) | > 100 µM (inactive) | 27.5 µM (inactive) | 19.4 µM (inactive) |  |  | > 100 µM (inactive) | 
CS(=O)(=O)OCC1=C(COS(C)(=O)=O)C(=O)c2c(O)ccc(O)c2C1=O | > 100 µM (inactive) | > 100 µM (inactive) | > 100 µM (inactive) | > 100 µM (inactive) | > 100 µM (inactive) | > 100 µM (inactive) | > 100 µM (inactive) |  | > 100 µM (inactive) | > 100 µM (inactive) | > 100 µM (inactive) | > 100 µM (inactive) | > 100 µM (inactive) |  | > 100 µM (inactive) | > 100 µM (inactive) | > 100 µM (inactive) | > 100 µM (inactive) | > 100 µM (inactive) | > 100 µM (inactive)
CCCC(=O)Nc1cc(/C=C/C(=O)N2CC(CCl)c3c2cc(OCc2ccccc2)c2[nH]cc(C)c32)n(C)c1 (stereo not given) | 0.0472 µM (active) | 0.0597 µM (active) | 0.0221 µM (active) | 0.0493 µM (active) | 0.199 µM (active) | 0.0139 µM (active) | 0.00849 µM (active) | 0.0817 µM (active) | 0.127 µM (active) | 0.0317 µM (active) | 0.0272 µM (active) | 0.0253 µM (active) | 0.186 µM (active) | 0.0147 µM (active) | 0.0675 µM (active) | 0.215 µM (active) | 0.0745 µM (active) | 0.151 µM (active) | 0.105 µM (active) | 
CC1(C)CCC2(C(=O)O)C(O)CC3(C)C(=CCC4C5(C)CCC(OC6OCC(O)C(O)C6OC6OCC(O)C(O)C6OC6OCC(O)C(OC7OC(CO)C(O)C(O)C7O)C6O)C(C)(C)C5CCC43C)C2C1 (stereo not given) | > 100 µM (inactive) | 39 µM (inactive) | > 100 µM (inactive) | 17.3 µM (inactive) | 19.8 µM (inactive) | 21 µM (inactive) | 19.8 µM (inactive) | 47.5 µM (inactive) | > 100 µM (inactive) | 20.3 µM (inactive) | > 100 µM (inactive) | 40.8 µM (inactive) | 23.3 µM (inactive) | > 100 µM (inactive) | 17.9 µM (inactive) | 36.5 µM (inactive) |  | 33.8 µM (inactive) | 76.4 µM (inactive) | 
CCOC(=O)/C(=N/Nc1ccc(Cl)cc1)N1C(=S)N(C)N=C(C)C=C1S | 57.1 µM (inactive) | > 100 µM (inactive) | 23.7 µM (inactive) | > 100 µM (inactive) | 40.3 µM (inactive) | 39 µM (inactive) | 22.1 µM (inactive) |  | 81.3 µM (inactive) | 20.5 µM (inactive) | > 100 µM (inactive) | > 100 µM (inactive) | 29.6 µM (inactive) | 26.7 µM (inactive) | 24.2 µM (inactive) | > 100 µM (inactive) | > 100 µM (inactive) | > 100 µM (inactive) | > 100 µM (inactive) | 
O=c1cc(N2CCCC2)[nH]c(=O)n1-c1cccc(C(F)(F)F)c1 | > 100 µM (inactive) | > 100 µM (inactive) | > 100 µM (inactive) |  | > 100 µM (inactive) | > 100 µM (inactive) | > 100 µM (inactive) | > 100 µM (inactive) | > 100 µM (inactive) | > 100 µM (inactive) | > 100 µM (inactive) | > 100 µM (inactive) | > 100 µM (inactive) | > 100 µM (inactive) | > 100 µM (inactive) |  | 76.4 µM (inactive) | > 100 µM (inactive) | > 100 µM (inactive) | 
CC(C)NC(=O)OCc1c(COC(=O)NC(C)C)c(-c2cc[n+](COC(=O)Cc3ccccc3)cc2)n2c1CCC2 | > 100 µM (inactive) | > 100 µM (inactive) | > 100 µM (inactive) | > 100 µM (inactive) | > 100 µM (inactive) | 56.6 µM (inactive) | > 100 µM (inactive) | > 100 µM (inactive) | > 100 µM (inactive) | 92 µM (inactive) | > 100 µM (inactive) | > 100 µM (inactive) | > 100 µM (inactive) | 52 µM (inactive) | 54.6 µM (inactive) | > 100 µM (inactive) | > 100 µM (inactive) | > 100 µM (inactive) | > 100 µM (inactive) | 
